Measured values from ChEMBL document CHEMBL1201862, “PubChem BioAssay data set” (2004).
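Test compounds were applied to cells in 96-well plates for 48 hours at 5 doses. GI50 = concentration required for 50% inhibition of growth.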 The source made the active and inactive calls. Cut-off read from the data, not from the text of the source: active = GI50 up to about 1.1 µM and inactive = higher.

Key:
Experiment in all cases: NCI tumour cell line growth inhibition, 48 h
NCI-H23 = test system: NCI-H23
SN12C = test system: SN12C
Malme-3M = test system: Malme-3M
SK-MEL-28 = test system: SK-MEL-28
NCI/ADR-RES = test system: NCI/ADR-RES
T47D = test system: T47D
COLO 205 = test system: COLO 205
HT-29 = test system: HT-29
IGROV-1 = test system: IGROV-1
UO-31 = test system: UO-31
UACC-257 = test system: UACC-257
NCI-H460 = test system: NCI-H460
K562 = test system: K562
786-0 = test system: 786-0
MCF7 = test system: MCF7
OVCAR-3 = test system: OVCAR-3
EKVX = test system: EKVX
MDA-MB-435 = test system: MDA-MB-435
A549 = test system: A549
NCI-H226 = test system: NCI-H226

Measured: GI50

CN1CCCN2CCN(C)CCN(CC1)CC2
inactive: NCI-H23 > 100 µM | SN12C > 100 µM | Malme-3M > 100 µM | SK-MEL-28 > 100 µM | NCI/ADR-RES > 100 µM | T47D > 100 µM | COLO 205 > 100 µM | HT-29 > 100 µM | IGROV-1 > 100 µM | UO-31 > 100 µM | UACC-257 > 100 µM | NCI-H460 > 100 µM | K562 > 100 µM | 786-0 > 100 µM | MCF7 > 100 µM | OVCAR-3 > 100 µM | EKVX > 100 µM | MDA-MB-435 > 100 µM | A549 > 100 µM

O=C1CCCC/C1=C\c1ccc(Br)cc1
inactive: NCI-H23 16.2 µM | SN12C 17.6 µM | Malme-3M 7.73 µM | SK-MEL-28 13.7 µM | NCI/ADR-RES 3.73 µM | T47D 23.3 µM | COLO 205 17.6 µM | IGROV-1 19.7 µM | UO-31 16.1 µM | UACC-257 26.8 µM | NCI-H460 35.5 µM | K562 4.33 µM | 786-0 16.6 µM | MCF7 2.71 µM | OVCAR-3 20.7 µM | EKVX 24.8 µM | MDA-MB-435 15.8 µM | A549 22.4 µM

CCOC(=O)C(NC(=O)CC)(Nc1cc(C)on1)C(F)(F)F (stereo not drawn)
inactive: NCI-H23 > 100 µM | SN12C > 100 µM | SK-MEL-28 > 100 µM | NCI/ADR-RES > 100 µM | T47D > 100 µM | COLO 205 > 100 µM | HT-29 > 100 µM | IGROV-1 > 100 µM | UO-31 > 100 µM | UACC-257 > 100 µM | K562 > 100 µM | 786-0 > 100 µM | EKVX > 100 µM | MDA-MB-435 > 100 µM | A549 > 100 µM

CNC(=S)Nc1ccc(OC)c2ccccc12
inactive: NCI-H23 > 10 µM | SN12C > 10 µM | Malme-3M > 10 µM | SK-MEL-28 > 10 µM | NCI/ADR-RES > 10 µM | T47D > 10 µM | COLO 205 > 10 µM | HT-29 > 10 µM | IGROV-1 > 10 µM | UACC-257 > 10 µM | K562 > 10 µM | 786-0 > 10 µM | MCF7 > 10 µM | OVCAR-3 2.88 µM | MDA-MB-435 > 10 µM | A549 > 10 µM

O=[N+]([O-])C1=Cc2c(O)ccc(O)c2C2c3ccccc3NC12 (stereo not drawn)
inactive: NCI-H23 4.24 µM | SN12C 16.7 µM | SK-MEL-28 18.5 µM | NCI/ADR-RES 7.43 µM | T47D 7.03 µM | COLO 205 11.6 µM | HT-29 9.02 µM | IGROV-1 13.5 µM | NCI-H226 61.2 µM | UO-31 5.33 µM | UACC-257 13.9 µM | NCI-H460 12.8 µM | K562 9.27 µM | 786-0 12.1 µM | MCF7 2.71 µM | OVCAR-3 5.81 µM | EKVX 14.8 µM | MDA-MB-435 14.7 µM | A549 17.3 µM

CC(C)CC(C#CCCOC(=O)c1ccccc1)OC(=O)c1ccccc1 (stereo not drawn)
inactive: NCI-H23 > 10 µM | SN12C > 10 µM | Malme-3M > 10 µM | SK-MEL-28 > 10 µM | T47D > 10 µM | HT-29 > 10 µM | IGROV-1 > 10 µM | NCI-H226 > 10 µM | UO-31 > 10 µM | UACC-257 > 10 µM | NCI-H460 > 10 µM | K562 > 10 µM | 786-0 > 10 µM | MCF7 > 10 µM | OVCAR-3 > 10 µM | EKVX > 10 µM | MDA-MB-435 > 10 µM | A549 > 10 µM

CCOC(=O)CNc1nc(=O)c2c(=O)oc(Cl)cc2o1
inactive: NCI-H23 19.1 µM | SN12C 18.4 µM | Malme-3M 11.4 µM | SK-MEL-28 22.9 µM | NCI/ADR-RES 21.4 µM | T47D 18.9 µM | COLO 205 16.7 µM | HT-29 10.7 µM | IGROV-1 10.1 µM | NCI-H226 > 100 µM | UO-31 12.8 µM | UACC-257 17.5 µM | NCI-H460 16.6 µM | K562 6.25 µM | 786-0 10.2 µM | OVCAR-3 12.9 µM | EKVX 16.1 µM | MDA-MB-435 15.7 µM | A549 18.3 µM

C[C@@H]1C[C@](O)([C@@H](C)Cl)C(=O)O[C@@H]2CCN3CC=C(COC(=O)[C@]1(C)O)[C@H]23
inactive: NCI-H23 > 10 µM | SK-MEL-28 > 100 µM | NCI/ADR-RES > 100 µM | T47D > 100 µM | COLO 205 > 100 µM | HT-29 > 100 µM | IGROV-1 > 100 µM | NCI-H226 > 100 µM | UO-31 > 10 µM | UACC-257 > 100 µM | NCI-H460 > 10 µM | K562 > 100 µM | 786-0 > 100 µM | MCF7 > 100 µM | OVCAR-3 > 100 µM | EKVX > 100 µM | MDA-MB-435 > 100 µM | A549 > 100 µM

CC1C2(C)OC(=N)C(C#N)(C(C)O2)C1(C#N)C#N (stereo not drawn)
inactive: NCI-H23 28.8 µM | SN12C 16.3 µM | Malme-3M 25 µM | SK-MEL-28 27.4 µM | NCI/ADR-RES 77.1 µM | T47D 30.1 µM | COLO 205 12.1 µM | HT-29 28.2 µM | IGROV-1 39.5 µM | NCI-H226 > 100 µM | UO-31 42.9 µM | UACC-257 20.2 µM | NCI-H460 19.6 µM | K562 34.9 µM | 786-0 22 µM | MCF7 24.8 µM | OVCAR-3 24.5 µM | EKVX 30.8 µM | A549 79.1 µM

O=S(=O)(O)c1cccc2c(/N=N/c3c(O)ccc4ccccc34)cccc12
inactive: NCI-H23 > 100 µM | SN12C > 100 µM | Malme-3M > 100 µM | SK-MEL-28 > 100 µM | NCI/ADR-RES > 100 µM | T47D > 100 µM | COLO 205 > 100 µM | HT-29 > 100 µM | IGROV-1 > 100 µM | NCI-H226 > 100 µM | UO-31 > 100 µM | UACC-257 > 100 µM | K562 > 100 µM | 786-0 > 100 µM | OVCAR-3 > 100 µM | EKVX > 100 µM | MDA-MB-435 > 100 µM | A549 > 100 µM

COc1ccc(/C=C2/CCS(=O)(=O)c3ccc(C)cc3C2=O)cc1OC
inactive: NCI-H23 12.5 µM | SN12C 13.2 µM | SK-MEL-28 17.2 µM | NCI/ADR-RES 11.8 µM | T47D 13.2 µM | COLO 205 14.2 µM | HT-29 13.9 µM | IGROV-1 6.4 µM | NCI-H226 14.3 µM | UO-31 7.48 µM | UACC-257 11.9 µM | NCI-H460 7.74 µM | K562 24.8 µM | 786-0 11.4 µM | MCF7 8.38 µM | OVCAR-3 28.1 µM | EKVX 13.7 µM | MDA-MB-435 12.5 µM | A549 25.9 µM
